In patent US8754128B2, “Dioxoanthracene sulphonate derivatives” (Laboratoire Medidom SA, priority 2007, dated 2014):
In brackets after ≈: the same amount, converted by molar mass.

Columns and labels:
[1] = test system: colon and kidney cells; conditions: Comet assay, Müller et al. 1996; cited from earlier work
[2] = Solubility in water; format: physicochemical; conditions: for solubility in water (in words): water / aqueous solution; for solubility of test solutions for chondrocyte culture: rhein needed five minutes sonication
[3] = test system: IL-1 β cytokine production by human normal and osteoarthritic (OA) chondrocytes; assay: In vitro IL-1β inhibition in LPS-stimulated human chondrocytes (ELISA); format: cell-based
Excerpt: The activity of the compound of example 1, and of rhein in inhibiting the lipopolysaccharide (LPS) stimulated production of IL-1 β cytokine by human normal and osteoarthritic (OA) chondrocytes was studied.
Human cartilage was obtained during orthopaedic surgery for total hip prosthesis due to traumatic fracture in normal subjects or OA patients. Patients with OA were selected on the basis of the following criteria (1) bi-lateral OA, (2) diagnoses of moderate OA (grade I-III, Kellgren-Laurence), supported by radiology and pathology.
A suspension of isolated chondrocytes was prepared from cartilage specimens obtained from four OA patient and nine normal subjects. Specimens were obtained and maintained under aseptic conditions. The cartilage was cut into small fragments and incubated with 1 mg/ml clostridial collagenase in carbonate/bicarbonate buffer for 48 hours at 37° C. Once separated from the cartilage matrix, chondrocytes were centrifuged at 1500 RPM for five minutes. The separated chondrocytes, suspended in culture medium (DMEM supplemented with 10% SCF) were used for the experiment. Cell viability was evaluated by Trypan blue exclusion.
In vitro stimulation of chondrocytes with bacterial endotoxin (LPS) for the production of IL-1 β was carried out as follows: […]

Compound	solubility in water (in words) [2]	solubility of test solutions for chondrocyte culture [2]	also measured
O=C1c2cccc(O)c2C(=O)c2c(O)cc(CO)cc21 [Aloe-emodin]	–	–	clastogenic effect [1]: clastogenic effect in colon and kidney cells
CC(=O)Oc1cccc2c1C(=O)c1c(OC(C)=O)cc(C(=O)O)cc1C2=O [diacerein]	practically insoluble in water	–	–
O=C(O)c1cc(O)c2c(c1)C(=O)c1ccc(S(=O)(=O)O)c(O)c1C2=O [Example 1, 6-sulfo-4,5-dihydroxy-9,10-dioxo-2-anthracene carboxylic acid]	–	good solubility	solubility ([2]; water): 1200 µg/mL (≈ 3.29 mM); IL-1β inhibition activity compared with rhein (FIG. 3) ([3]; LPS-stimulated normal and OA chondrocytes, 48 hours, ELISA): significantly increased IL-1β inhibition activity compared with rhein; inhibition of IL-1β production (FIG. 4) ([3]; LPS-stimulated normal chondrocytes, dose-dependent): significant inhibition of IL-1β production
O=C(O)c1cc(O)c2c(c1)C(=O)c1cccc(O)c1C2=O [rhein, 4,5-dihydroxy-9,10-dioxo-2-anthracene carboxylic acid]	practically insoluble in water	solubility problems	–
